Measured values published in paper PMC10791743, “Selective CK1α degraders exert antiproliferative activity against a broad range of human cancer cell lines” (Nature Communications, 2024).

How the values were obtained:
Type in all cases: in vitro ADME
[1] = Metabolic stability in cryopreserved hepatocytes, human; conditions: Pooled Human Hepatocytes, 1 μM
Protocol: (§1) page 34: UHPLC-MS/MS System: Chromatographic separation was performed on an Acquity UPLC BEH […] with 6500+ Qtrap system. […] software suite. The UPLC column was maintained at 55 °C. Mobile phase A was 0.1% formic acid in MilliQ H2O and Mobile phase B was 0.1% formic acid in acetonitrile. The flow rate was 0.9 […] The mass spectrometer was operated in positive-ion mode with electrospray ionization. MRM transition m/z […] plasma stability and plasma protein binding. The following MS parameters were employed for analyte measurements: ion spray voltage 5 kV, temperature 550 °C, gas 1 and gas 2 were 60, entrance potential (EP): 10 V, declustering potential (DP): 50 V, collision energy (CE): 27 V, and collision cell exit potential (CXP): 16 V. Metabolic Stability in mouse and human cryopreserved hepatocytes. 10 mM test compounds were provided by Compound Sample Group. Diluted 10 mM test compounds and 30 mM positive control compounds (7-ethoxycoumarin) to 1 mM and 3 mM with DMSO in 96-well plates. Diluted 1 mM test compounds and 3 mM positive control compounds to 100 μM and 300 μM dosing solutions with ACN. Cryopreserved cells were thawed, isolated and suspended in Incubation Medium, then diluted with pre-warmed Incubation Medium to 0.5 × 10^6cells/mL. Added 198 μL of pre-warmed cell suspensions in 96 -well plates. Transferred 125 μL of stop solution (acetonitrile containing 200 ng/mL tolbutamide and 200 ng/mL labetalol as internal standards) in a set of pre- labeled 96-well plates. Spike d 2 μL dosing solution to each well of 96 -well plates in duplicates. For T0 Samples, mix ed to achieve a homogenous suspension for about 1 min, then immediately transferred 25 μL of each sample into well containing 125 μL of ice -cold stop solution followed by mixing. Incubated all plates at 37°C in a 95% humidified incubator at 5% CO 2 to start the reactions page 35: with constant shaking at about 600 rpm. At 15, 30, 60 and 90 min, mixed samples and then transferred 25 μL of each sample at each time point to well containing 125 μL of ice -cold stop solution followed by mixing. Medium Control (MC) sample plates (labeled as T0-MC and T90- MC) were prepared at T0 and T90 by adding the same components to each well except cell suspensions. At each corresponding time point, stopped the reactions by removing the plates from incubator and mixing with 125 μL of ice-cold stop solution. Vortexed the plates immediately on a plate shaker at 500 rpm for 10 minutes. Then, centrifuge d all sample plates at 3220 x g for 20 min at 4°C. After centrifugation, 80 μL/well of supernatant in the sample plates were transferred to another set of pre-labeled 96-well plates which containing 240 μL of ultra pure water according to the plate map. Analytical plates were sealed and stored at 4°C until LC-MS/MS analysis. Thawing Medium: Williams' Medium E containing 5% fetal bovine serum and 30% Perc oll solution and other supplements. Incubation Medium: Williams' Medium E (no phenol red) containing 2 mM L-Glutamine and 25 mM HEPES. Stop Solution: Acetonitrile containing 200 ng/mL tolbutamide and labetalol as internal standards. Dilution Solution: Ultra-pure water. The remaining percents of test articles after incubation were calculated by the follow equations: Equation ( 6): Use equation of first order kinetics [NT] […] The data was […] concatenated with a reversed decoy database for evaluating False Discovery Rate (FDR). […]

[2] = Medium control without cells (hepatocyte stability assay); conditions: 90 min, 1 μM
[3] = Metabolic stability in cryopreserved hepatocytes, mouse; conditions: 1 μM; for Remaining: Pooled Mouse Hepatocytes
Protocol: as §1

## O=C1CCC(N2Cc3cc(Nc4noc5ccccc45)ccc3C2=O)C(=O)N1 (stereo not shown) [SJ001043149-3]
[1]; 15 min
  Remaining: 110.2%
[1]; 30 min
  Remaining: 88.9%
[1]; 60 min
  Remaining: 93.8%
[1]; 90 min
  Remaining: 108.9%
[2]
  Remaining: 94.5%
[3]; Pooled Mouse Hepatocytes (first result line, species inferred from Ln(Remaining))
  k: 0.0013 min⁻¹
[3]; 15 min
  Remaining: 83.3%
[3]; 30 min
  Remaining: 86.1%
[3]; 60 min
  Remaining: 89.6%
[3]; 90 min
  Remaining: 81.4%
